Experimental findings from patent US8278295B2, “Amino-heterocyclic compounds” (Pfizer Inc., priority 2009, dated 2012) are described below.

The target of this assay is human recombinant PDE9 enzyme (Homo sapiens, UniProt O76083). The assay is described as follows: PDE9 IC50, 96-well assay (Phosphodiesterase SPA). It counts as biochemical.
Chain of human recombinant PDE9 enzyme (O76083 whole entry): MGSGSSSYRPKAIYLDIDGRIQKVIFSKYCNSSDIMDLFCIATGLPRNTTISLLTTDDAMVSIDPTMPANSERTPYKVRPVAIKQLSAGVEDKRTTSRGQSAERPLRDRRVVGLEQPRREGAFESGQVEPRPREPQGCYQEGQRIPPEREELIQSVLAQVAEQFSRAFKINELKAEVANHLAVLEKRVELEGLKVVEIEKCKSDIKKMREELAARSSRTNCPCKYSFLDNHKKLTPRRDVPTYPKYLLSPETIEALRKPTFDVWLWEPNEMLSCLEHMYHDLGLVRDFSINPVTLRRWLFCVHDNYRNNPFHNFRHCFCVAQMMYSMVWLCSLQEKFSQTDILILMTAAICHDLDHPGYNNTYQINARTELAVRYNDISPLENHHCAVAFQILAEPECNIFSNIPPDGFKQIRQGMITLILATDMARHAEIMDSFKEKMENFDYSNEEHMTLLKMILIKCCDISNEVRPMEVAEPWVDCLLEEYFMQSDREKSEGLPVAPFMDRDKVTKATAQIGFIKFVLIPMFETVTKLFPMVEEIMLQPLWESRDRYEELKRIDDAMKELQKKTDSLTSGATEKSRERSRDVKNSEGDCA

Experimental: PDE9 IC50, 96-well assay: The assay was performed using the Phosphodiesterase Scintillation Proximity (SPA) assay (GE Healthcare Life Sciences). […] The human recombinant PDE9 enzyme was generated in SF-9 cells, the cell pellets were sonicated in buffer (20 mM Tris, 2 mM benzamidine, 1 mM EDTA, 250 mM sucrose, 100 μM PMSF, pH 7.5 with HCl), centrifuged at 40,000×g for 20 min at 4° C. The supernatants were stored at −80° C. […] Test compounds were dissolved in DMSO, diluted in DI H2O and serially diluted in 20% DMSO/80% H2O, for a final concentration of 2% DMSO. For the assay the PDE9 was diluted with assay buffer such that 20% or less of the substrate was hydrolyzed to 5′GMP. Each assay well contained 10 μL of test compound or solvent, 40 μl of [^3H]cGMP and 50 μl of enzyme, background was determined by a high concentration of a PDE inhibitor. The assay was initiated with the addition of the enzyme and carried out at room temperature for 30 min. […] The plates were sealed, vortexed, allowed to set for >300 min, then counted in a Wallac TriLux MicroBeta LSC.

As a reminder, the IC50 is the point on the concentration scale where inhibition reaches its midpoint. Consider `C[C@H](c1nc2c(cnn2C2CCCC2)c(=O)[nH]1)N1CC(Oc2ncccn2)C1` [Example 13, 1-Cyclopentyl-6-{(1R)-1-[3-(pyrimidin-2-yloxy)azetidin-1-yl]ethyl}-1,5-dihydro-4H-pyrazolo[3,4-d]pyrimidin-4-one], for which the IC50 stood at 9.49 nM.
